Source: BigSolDB 2.1

C=C1CC[C@H](O)C/C1=C/C=C1\CCC[C@]2(C)[C@@H]([C@H](C)CCCC(C)C)CC[C@@H]12
solubility (mole fraction)
Details | in acetone | in acetonitrile | in ethanol | in ethyl acetate | in methanol | in n-propanol
248.2 K | 0.00611 | 7.61e-05 | 0.0532 | 0.0219 | 0.00204 | 0.0647
253.2 K | 0.00805 | 9.25e-05 | 0.0646 | 0.0287 | 0.00249 | 0.0873
258.2 K | 0.0106 | 0.000133 | 0.0796 | 0.0366 | 0.00337 | 0.111
263.2 K | 0.0143 | 0.00016 | 0.0965 | 0.0478 | 0.0046 | 0.136
268.2 K | 0.0192 | 0.000252 | 0.116 | 0.0639 | 0.00625 | 0.163
273.2 K | 0.028 | 0.000311 | 0.14 | 0.0883 | 0.00993 | 0.193
